The text below walks through data of patent US20180251425A1, “2,3,5 TRISUBSTITUTED PYRROLE DERIVATIVES AS TOPOISOMERASE INHIBITORS AND THERAPEUTIC USES THEREOF” (UNIVERSITY OF MYSORE, priority 2015, published 2018).

For test [1], the system named is MCF7. As to the kind of experiment: Cytotoxicity in MCF7 cells. In kind it is cell-based. Particulars: Homo sapiens, read-out: Cytotoxicity IC 50 in μM (Cell lines) MCF7. How it is done:
(§1) Human cancer cell lines, K562, MCF7, HeLa and HEK 293T were purchased from National Centre for Cell Science, Pune, India. Cells were grown in RPMI 1640/MEM/DMEM supplemented with 10% heat-inactivated fetal bovine serum (FBS), 100 U/mL of Penicillin, and 100 μg of streptomycin/mL and incubated at 37° C. in a humidified atmosphere containing 5% CO2.
(§2) The human T cell leukemia cell line Molt4, Human acute lymphoblastic leukemia (ALL) cell line Nalm6, Human acute myelocytic leukemia (AML) cell line Reh, chronic myelogenous leukemia (CML) cell line K562, Human breast adenocarcinoma cell lines like MCF7 and human kidney cell line HEK 293T (Human embryonic kidney cell line) were selected for the purpose of preliminary anticancer screening of newly synthesized compounds (ASR1 to ASR15). To check the cytotoxicity, trypan blue dye exclusion assays, MTT assay were employed as described earlier Further, Cell cycle analysis, Mitochondrial membrane potential, Annexin-V FITC staining assay were also performed in order to understand the mode of cell death after treatment with ASR6. Further, ASR6 was also tested for its ability to inhibit topoisomerase I and II activity in vitro.
(§3) Cytotoxic effect of the newly synthesized compounds against leukemic cells was assessed using 3-(4, 5-dimethyl-2-yl02, 5-diphenyl tetrazolium bromide (MTT) assay. After exposure of compound at different concentration (0.01, 0.1, 0.5, 1, 10, 50 and 100 μM) cells were harvested and transferred into 96 well plate, MTT (5 mg/ml) was added and incubate at 37° C. for 4 h and formazan crystals were dissolved by adding solubilizing agent (10% SDS and 50% dimethyl formamide) for 1 h, finally plate was read at 570 nm (Bio-Rad, USA). Results were represented as inhibition of percentage of cell proliferation in bar diagram (n=3) (FIGS. 1 A, C, E and G).
(§4) To determine the growth inhibitory activity of the drug, 0.5×10^5 cell/ml were plated in 24 well (Biofil, USA.) in 1 ml of complete medium and treated with various concentration of the compound to test, cells were stained with 0.4% trypan blue and counted on a hemocytometer after treatment with compounds at 48 and 72 h time point. Results were represented as number of viable cells/ml in bar diagram (FIGS. 1 B, D, F, and H) (n=3).

Test [2] deals with Nalm6. As to the kind of experiment: Cytotoxicity (MTT / trypan blue) in Nalm6 cells. Format: cell-based. The settings on record: Homo sapiens, NALM-6, read-out: Cytotoxicity IC 50 in μM (Cell lines) Nalm6. The method, then: as §1
(§5) Nalm6, Molt4 and Reh cells were provided by Dr. Sathees C. Raghavan, Department of Biochemistry, IISc, Bangalore. The cells were grown under the similar culture conditions as mentioned above.
as §2, §3, §4

Test [3] concerns Molt4. As to the kind of experiment: Cytotoxicity (MTT / trypan blue) in Molt4 cells. Format: cell-based. The settings on record: Homo sapiens, MOLT-4, read-out: Cytotoxicity IC 50 in μM (Cell lines) Molt4. How it is done:
as §1, §5, §2, §3, §4

The test system of test [4] is Molt4 cells. As to the kind of experiment: Annexin V-FITC/PI staining for apoptosis. Particulars: 0.25 & 0.5 μM, 48 h. In kind it is cell-based, Human. How it is done:
To identify induction of apoptosis after treatment withASR6 in Molt4 cells, annexin V-FITC and propidium iodide staining was carried out. Briefly, Molt4 cells (0.5×10^5 cells per ml) were seeded in 24 well plate and treated with ASR6 (0.25 & 0.5 μM; 48 h). Cells were washed with 1× phosphate buffered saline and suspended in cell binding buffer, stained with Annexin V-FITC (0.2 mg/ml) and propidium iodide (0.05 mg/ml)(Santacruz, USA), and incubated in dark for 20 min at room temperature. Finally cells were subjected to FACS analysis (FACSVerse™BD Bioscience, USA) (10,000 cells were acquired). The results were analyzed in WinMDI 2.9 Software, bar diagram was plotted using at least two independent experiments with error bar.

In test [5] the test system is Molt4 cells. The test can be described thus: Cell cycle analysis (propidium iodide, flow cytometry). Format: cell-based, Human. The settings on record: Molt4 cells, 0.01, 0.1, 0.25 and 0.5 μM, concentration dependent. How it is done: The DNA content analysis was performed by using Flow cytometer, Molt4 cells seeded (0.5×10^5 cells/ml) in 6 well plate and treated with different concentrations of ASR6 (0.01, 0.1, 0.25 and 0.5 μM) at 37° C. for 48 h. After incubation cells were harvested, processed and fixed in 80% chilled ethanol. Overnight treated with RNase-A (50 μg/ml) incubated at 37° C. Further cells stained with propidium iodide (5 μg/ml) and cell cycle progression was monitored using flow cytometer (FACSVerse™ BD Biosciences, USA). A minimum of 10000 cells were recorded. Results were analyzed using Flowing Software (Version 2.5) and plotted histograms.
In FIG. 2 A, B histograms representing different phases of cell cycle distribution of ASR6 (0.01, 0.1, 0.25 and 0.5 μM for 24 h and 48 h) treated Molt4 cells is shown.
(In flow cytometry, cells or beads pass a laser one at a time.)

Test [6] concerns HeLa. As to the kind of experiment: Cytotoxicity in HeLa cells. Format: cell-based. Particulars: Homo sapiens, read-out: Cytotoxicity IC 50 in μM (Cell lines) HeLa. The method, then: as §1
as §3, with “G). […]” for “G).”

Test [7] deals with K562. The test can be described thus: Cytotoxicity (MTT / trypan blue) in K562 cells. The settings on record: Homo sapiens, read-out: Cytotoxicity IC 50 in μM (Cell lines) K562. Format: cell-based. How it is done: as §1, §2, §3, §4

As for `CCOC(=O)c1[nH]c(-c2ccc(Cl)cc2)cc1-c1cccnc1` [ASR6, Ethyl 5-(4-chlorophenyl)-3-(pyridin-3-yl)-1H-pyrrole-2-carboxylate], the IC50 in test [1] worked out at 0.884 µM; in test [2] it was 0.344 µM; in test [3], 0.195 µM; in test [6] it was 0.749 µM; in test [7] it was 0.512 µM. For the same compound, in test [4], the “Apoptotic cell population (annexin V-FITC/PI)” value was “significant increase in apoptotic cell population”. For the same compound, the “Cell cycle progression at 24 h” value in test [5] (24 h) is “G2/M arrest”. Further, the “Cell cycle progression at 48 h” value in test [5] (48 h) was “SubG1 phase (apoptosis)”.
